Measurements taken from patent US6989270B1, “Using polyamide nucleic acid oligomers to engender a biological response” (Mayo Foundation for Medical Education and Research, priority 1997, dated 2006).

How the values were obtained:
[1] = test system: neurotensin receptor-1 (NTR1); assay: Hot plate test of NT-mediated anti-nociception in PNA-treated rats; type: in vivo, rat
Procedure: Under an Institutional Animal Care and Use Committee approved protocol and under sterile conditions male Sprague-Dawley rats (180-200 g) were stereotaxically implanted with stainless steel guide cannulae (26 gauge) into the PAG under sodium pentobarbital anesthesia (50 mg/kg, i.p.) as described in detail elsewhere (Jensen T. S. and Yaksh T. L., Brain Res. 372:301-312 (1986) and Al-Rodhan N.R.F., Brain Res. 557:227-235 (1991)). The coordinates used for PAG cannulations are -5.6 mm posterior from bregma, 1.0 mm lateral from bregma, and 5.5 mm down from the dura. The guide cannula was pre-measured to be 5.5 mm (Plastics One, Roanoke, Va.) and the internal cannula was ordered to fit below the pedestal with a 2.0 mm projection. The guide cannula was then fixed to the skull using a stainless steel screw (⅛ inch) and cranioplastic cement. A stainless steel stilette was then placed in each guide to keep it patent and free of debris. Immediately after surgery, the animals were allowed to recover before returning them to an individual housing cage. All injections began 5-7 days after surgery.
NTR1-PNA oligomers were injected, using a Hamilton digital syringe, into the PAG through the internal cannula, which extended 2 mm below the guide tip. The internal cannula was connected with a length of polyethylene tubing (PE-20) filled with saline solution. A small air bubble was introduced into the tubing to separate the saline from a solution containing 1.3 nmol of NTR1-PNA oligomers in artificial cerebral-spinal fluid (ACSF). The volume of the solution containing the NTR1-PNA oligomers was about 1.0 μl. The bubble was used to confirm the movement of this solution through the polyethylene tubing.
NTR1-PNA oligomers were injected into the PAG of each rat three times, on days -4, -2, and 0. Controls included rats receiving no injections, rats receiving injections of ACSF only, and rats receiving PNA oligomers having sequence specificity for an unrelated polypeptide, the mu-1 morphine receptor (MU1R). The sequence of MU1R-PNA is 5′-[…]-3′ (SEQ ID NO: 2).
The injection of NT in the PAG of rats produces a potent anti-nociceptive response as well as hypothermia. These responses are mediated by specific NT receptors and are not inhibited by naloxone. A very sensitive and reliable hot plate test was used to measure the anti-nociceptive effects of NT (Al-Rodhan N.R.F., Brain Res. 557:227-235 (1991)).
NTR1-PNA, MU1R-PNA, and ACSF treated as well as untreated rats were analyzed using the hot plate test for NT. One day after the last treatment, each rat was analyzed as follows. Fifteen minutes prior to testing, a pre-drug latency measurement was made by placing the rat on a hot plate maintained at a temperature of 52±0.15° C. and recording the time elapsed before the rat licked either of its hindpaws. In addition, the temperature of the rat was taken using a thermister probe inserted 3 cm in the rectum to determine the pre-drug body temperature (BT). After making these measurement, an appropriate dose of NT (18 nmol) at a volume of about 0.5 ul was administered into the PAG as described above. Thirty minutes after administering NT, the rat was again placed on a hot plate maintained at a temperature of 52±0.15° C. and the latency between the time the rat was placed on the surface and the time it licked either of its hindpaws was measured. […] Hot plate tests were scored as the percent of maximum possible effect (% MPE) and calculated using the following equation: % MPE=[(post-drug latency−pre-drug latency)/(cut-off−pre-drug latency)]×100; where the cut-off is 30 seconds. […] This average for untreated control rats was used to set the baseline MPE value to 100. Immediately after the 30 second hot plate test, BT was taken to measure NT-induced hypothermia using a thermister probe inserted 3 cm in the rectum. […] All test situations were compared to these baseline values derived from NT responsive untreated controls. […]

MU1R mRNA = assay: Quantitative RT-PCR of MU1R mRNA relative to GAPDH; type: in vivo; details: treated intracranially, 5 μg
Procedure: Messenger RNA (mRNA) levels for NTR1, MU1R, and GAPDH were measured in control and PNA-treated animals. Briefly, total RNA was isolated from approximately 20 mg of tissue using the S.N.A.P. total RNA Isolation Kit (Invitrogen, Carlsbad, Calif.). Quantitative RT-PCR was performed on treated and control animals using GAPDH as an internal standard and PCR fragments of the human NTR and of a GAPDH deletion mutant as exogenous standards. First strand cDNA was synthesized from approximately 500 ng of total RNA using the cDNA Cycle Kit (Invitrogen, Carlsbad, Calif.). PCR was performed on a GeneAmp PCR System 9600 (Perkin Elmer, Norwalk, Conn.) using end-labeled primer and TAq DNA Polymerase (Gibco-BRL, Gaithersburg, Md.). Products were separated on a 5% acrylamide gel containing 7 M urea, and detected using a Storm860 Phosphoimager (Molecular Dynamics, Sunnyvale, Calif.). Data were analyzed using ImageQuant Software (Molecular Dynamics, Sunnyvale Calif.). To control for any diurnal mRNA level fluctuations that may occur, the PNA injection time was controlled such that the tissue harvest time was identical in each animal group.

[2] = test system: NTR1 cDNA synthesis from total brain RNA; assay: In vitro reverse transcription assay; type: biochemical, rat; details: 1 μg total brain RNA incubated with 600 ng PNA
Procedure: An in vitro reverse transcription assay was performed-as follows. Total RNA was isolated from 20 mg of tissue using the RNeasy Kit (Qiagen, Chatsworth, Calif.). After isolation, total RNA (lug) was incubated with the PNA oligomers (600 ng) at 40° C. for 40 minutes. Exogenous cRNA standards were added, and cDNA was synthesized using the cDNA Cycle Kit and gene-specific primers for NTR1 and GAPDH (Invitrogen, Carlsbad, Calif.). The exogenous cRNA standards were synthesized from dsDNA templates using the Megashort-Script Kit (Ambion, Austin, Tex.). The dsDNA templates for exogenous cRNA standards for the NTR1- and GAPDH-specific cDNA reactions were constructed using the PCR MIMIC Construction Kit (Clontech) and composite primers. […] After using the cDNA Cycle Kit, quantitative PCR was performed on each sample. […] Products were detected using a Storm860 Phosphoimager (Molecular Dynamics, Sunnyvale, Calif.) and data were analyzed using Image Quant Software (Molecular Dynamics, Sunnyvale, Calif.).
Using this in vitro reverse transcription assay, 1 μg of total RNA isolated from the brain of an untreated rat was incubated with 600 ng of the AS-NTR1-PNA or mismatch-AS-NTR1PNA oligomer and NTR1 cDNA production assessed. […]

NTR1-PNA: 12-mer antisense PNA oligomer to rat NTR1 coding region, 5′-CATTGCTCAAAC-3′ (SEQ ID NO: 1) (all peptide nucleic acid (PNA))
anti-nociception score (hot plate) after NT ([1]; 10 mg/kg intraperitoneally, NT 18 nmol into PAG 24 hours later): 25 % MPE
time until which NT-mediated anti-nociception remained significantly reduced ([1]; PNA injected into PAG on days -4, -2, 0): day five
Responsiveness: NT (anti-nociception and hypothermia) ([1]; intraperitoneal administration, Table VI): lost
time for responses to NT to return to baseline levels after PNA injection ([1]; single injection 10 mg/kg, tested every 24 hours with NT): ≤ 48 h
change in MU1R/GAPDH ratio of mRNA (MU1R mRNA): no significant change
reduction in NTR1 cDNA synthesis [2]: 65%
